Values joined by “and” are separate entries in the source; they are usually repeats but may differ in a detail not shown here. Equal values may be shown once.
Assays:
[1] = tested on: bone fracture; assay: Repair of bone fractures (fractured ulna, loss of minerals on decalcification, histology); assay type: in vivo, guinea pigs; settings: for after decalcification / before decalcification: ten days after surgery
Protocol: The ulnae of 18 guinea pigs were exposed surgically and then fractured at the midshaft, using a very fine dental burr as a saw. The intact radius served as an immobilization splint. The animals were divided into six groups, three in each, according to the treatment at the fracture site, which was as follows: • Group 1. Untreated controls • Group 2. Sucrose octasulfate 1.0 mg/ml instilled at the fracture site with a syringe • Group 3. Sucrose octasulfate 4.0 mg/ml • Group 4. Collagen (a native 0.25% neutral salt solution) • Group 5. Collagen plus sucrose octasulfate 1.0 mg/ml • Group 6. Collagen plus sucrose octasulfate 4.0 mg/ml
The animals were sacrified ten days after surgery, and the fractured bones were dissected and processed for both histologic and biochemical analyses.

[2] = tested on: collagen; assay: Sucrose octasulfate induced collagen fibrillogenesis (stopped-flow turbidity); assay type: biochemical
Source text: Sucrose octasulfate-induced collagen fibril formation was studied in a spectrophotometer equipped with a stopped-flow apparatus. […]

[3] = tested on: fibroblasts; assay: Cell migration assay (Boyden chamber); assay type: cell-based; set-up: Chemokinesis: scale not given here
Protocol: Stimulation of directed movement of fibroblasts was assayed as described by Banda M.J., Knighton D.R., Hunt T.K., Werb A., Isolation of a nonmitogenic angiogenesis factor from wound fluid, Proc. Natl. Acad. Sci. 79:7773-7777, 1982. Briefly, solutions of sucrose octasulfate in PBS in concentrations resulting in final concentrations ranging from 10 -² to 10 -⁷ g/ml diluted to a final volume of 300 µℓ in DMEM supplemented with 10 percent rabbit platelet-poor plasma serum were placed in the bottom of Boyden blind-well chambers. Polylysine-coated, 5 µ -pore diameter, polycarbonate filters (Nucleopore) were placed over the test solution and 1.75-3.0 x 10⁶ fibroblasts suspended in DMEM added to the top compartment. The chambers were incubated for two and a half hours at 37 °C,
At the end of incubation of the top filter was fixed, stained and evaluated by counting the number of cells that had migrated to the bottom side of the filter. For each experiment five random fields per filter and at least 15 filters per each concentration of sucrose octasulfate were conducted. […]

[4] = tested on: pressure ulcer; assay: Clinical double-blind dose-response trial in pressure ulcers; assay type: in vivo, patients; settings: for Results: twice daily
Protocol: Five patients were subjected to a dose-response trial using sucrose octasulfate in water. The test was a double-blind trial with four treatment arms, 0.1, 1.0, or 10mg/ml or placebo (sterile water for irrigation). Patients were entered following debridement of the study pressure ulcer and a gauze sponge was saturated with sucrose octasulfate solution (i.e. sucrose octasulfate in sterile water vehicle) or placebo and packed into the ulcer crater, then covered with biobrane dressing to keep the area moist. Treatments were applied twice daily for a 30 day interval for four patients and for three weeks for the fifth patient.
The patient population was bedridden comatose adults with chronic ulcers having failed with some form of previous treatment(s). The patients were kept on the same ward as they had been during months prior to the trials so nursing care was uniform prior to and during the study. Thus, any response is favourable. The first four cases are nearly uniform in that three of four treatment ulcers were trochanteric.

[5] = tested on: rabbit corneas; assay: Rabbit cornea assay for angiogenesis; assay type: in vivo
Protocol: This may offer an explanation for the dense vascular bed that characterized the granulation tissue in the in-vivo experiments. Sucrose octasulate at concentrations of 0.1 to 100 µg/ml was encapsulated in Hydron and implanted in rabbit corneas. The method used was that described in Surgery 96:48-54, 1984. The […] solution (sucrose octasulfate or PBS) was mixed with an equal volume of Hydron and allowed to polymerize under reduced pressure. […] Eyes were evaluated at days 1 through 14 post-implantation for gross inflammation and, as described by Hunt, et al, in Surgery 96:48-54, 1984, for angiogenesis. Corneal neovascularization was graded on a scale of 0-4+ (integers only being assigned). Zero denotes a normal eye with no ingrowth on limbal vessels into the corneal stroma; 1+, up to 1 mm of capillary ingrowth in a localized arc adjacent to the injection site; 2+, […] ingrowth; 3+, 2-3 mm ingrowth; and 4+, 3 mm or greater ingrowth in a wide arc along the limbal edge toward the injection site. […] To ascertain that the observed angiogenesis was not secondary to an inflammatory process some eyes with a positive response were removed and stained with H&E and a nonspecific esterase stain as early as two days after implantation.

[6] = sucrose octasulfate 1 mg/ml at fracture site
[7] = sucrose octasulfate 4 mg/ml at fracture site

O=S(=O)([O-])OC[C@H]1O[C@@](COS(=O)(=O)[O-])(O[C@H]2O[C@H](COS(=O)(=O)[O-])[C@@H](OS(=O)(=O)[O-])[C@H](OS(=O)(=O)[O-])[C@H]2OS(=O)(=O)[O-])[C@@H](OS(=O)(=O)[O-])[C@@H]1OS(=O)(=O)[O-].[K+].[K+].[K+].[K+].[K+].[K+].[K+].[K+] [Sucrose Octasulfate, potassium sucrose octasulfate]
after decalcification [1, 6]: 2.20
before decalcification [1, 6]: 7.00
decrease ([1]; sucrose octasulfate 1 mg/ml, loss of minerals following decalcification): 4.80 mg
decrease ([1]; sucrose octasulfate 1 mg/ml, percent loss of minerals following decalcification): 68.6%
after decalcification [1, 7]: 2.60
before decalcification [1, 7]: 5.90
decrease ([1]; sucrose octasulfate 4 mg/ml, loss of minerals following decalcification): 3.30 mg
decrease ([1]; sucrose octasulfate 4 mg/ml, percent loss of minerals following decalcification): 55.9%
moles of sucrose octasulfate per mole of collagen initiating the reaction [2]: five
critical concentration (lower concentration required for initiation of fibrillogenesis of collagen) ([2]; collagen 0.5 mg/ml, pH 7.4): 0.01 mg/ml
fibrillogenesis at pH 3.0 compared with pH 7.4 ([2]; pH 3.0): Identical results
time to dissociation of the transient complex ([2]; sucrose octasulfate 0.01 mg/ml, collagen 0.5 mg/ml): ≤ 100 ms
time of formation of collagen fibrils ([2]; sucrose octasulfate 0.2 mg/ml, collagen 0.5 mg/ml, pH 7.4): 60 to 70 ms and 60 to 75 ms
Chemokinesis ([3]; score, Boyden chamber, scale not defined, potassium salts): 4
Migrated fibroblasts, fold increase over negative control ([3]; sucrose octasulfate 10⁻² g/ml, 2.5 hours at 37 °C): 0.4 fold increase over negative control
Migrated fibroblasts, fold increase over negative control ([3]; sucrose octasulfate 10⁻³ g/ml): 0.4 fold increase over negative control
Migrated fibroblasts, fold increase over negative control ([3]; sucrose octasulfate 10⁻⁴ g/ml): 0.6 fold increase over negative control
Migrated fibroblasts, fold increase over negative control ([3]; sucrose octasulfate 10⁻⁵ g/ml): 2.2 fold increase over negative control
Migrated fibroblasts, fold increase over negative control ([3]; sucrose octasulfate 10⁻⁶ g/ml): 2.1 fold increase over negative control
Migrated fibroblasts, fold increase over negative control ([3]; sucrose octasulfate 10⁻⁷ g/ml): 1.1 fold increase over negative control
Depth (prestudy) ([4]; Patient 001, 10 mg/ml): 0.5 cm
Results ([4]; Patient 001, 10 mg/ml in water, 30 days): no reduction in ulcer depth
Depth (after treatment) ([4]; Patient 001, 10 mg/ml, 30 days): 0.5 cm
Depth (prestudy) ([4]; Patient 002, 1 mg/ml): 3.0 cm
Results ([4]; Patient 002, 1 mg/ml in water, 30 days): reduction in ulcer depth
Depth (after treatment) ([4]; Patient 002, 1 mg/ml, 30 days): 1.5 cm
Depth (prestudy) ([4]; Patient 003, 0.1 mg/ml): 0.5 cm
Results ([4]; Patient 003, 0.1 mg/ml in water, 30 days): some reduction in ulcer depth
Depth (after treatment) ([4]; Patient 003, 0.1 mg/ml, 30 days): 0.3 cm
Depth (prestudy) ([4]; Patient 005, 10 mg/ml): 2.8 cm
Results ([4]; Patient 005, 10 mg/ml in water, three weeks): reduction in ulcer depth
Depth (after treatment) ([4]; Patient 005, 10 mg/ml, after 3 weeks of treatment): 1.6 cm
extent of angiogenesis ([5]; 0.1 µg/ml): negative
No. Positive Responses ([5]; 0.1 µg/ml in Hydron, 5 corneas implanted): 0
No. Positive Responses ([5]; 1 µg/ml in Hydron, 6 corneas implanted): 1
No. Positive Responses ([5]; 10 µg/ml in Hydron, 5 corneas implanted): 4
No. Positive Responses ([5]; 100 µg/ml in Hydron, 9 corneas implanted): 8
Angiogenesis ([5]; grade on scale 0-4+ in rabbit cornea, potassium salts): 4
angiogenic response ([5]; implantation of 10 and 100 µg/ml): most potent angiogenic response
extent of angiogenesis ([5]; lower concentration, 1.0 g/ml as printed): decreased
